According to EPA's ToxRefDB 2:

Experiments:
[1] = tested on: rat; conditions: Subchronic dermal toxicity, sprague dawley, Topical, dose end: 13 week, group: systemic, systemic / in life observation / body weight / body weight + systemic / in life observation / food consumption / food consumption + systemic…
[2] = tested on: rat; conditions: Prenatal developmental toxicity study, sprague dawley, Oral, Gavage/Intubation, dose end: 15 GD
[3] = tested on: rabbit; conditions: Prenatal developmental toxicity study, new zealand white, Oral, Gavage/Intubation, dose end: 18 GD
[4] = tested on: rabbit; conditions: Prenatal developmental toxicity study, new zealand white, Oral, Gavage/Intubation, dose end: 19 GD
[5] = tested on: mouse; conditions: Carcinogenicity, cd1, Oral, Feed, dose end: 78 week, group: systemic
[6] = tested on: rat; conditions: Multigenerational reproductive toxicity study, sprague dawley, Oral, Feed, dose end: 2 generation
[7] = tested on: rat; conditions: Prenatal developmental toxicity study, sprague dawley, Oral, Gavage/Intubation, dose end: 15 GD; remark: listed apart in the source
[8] = tested on: dog; conditions: Chronic toxicity, beagle, Oral, Capsule, dose end: 52 week, group: systemic
[9] = tested on: rat; conditions: Combined chronic toxicity/carcinogenicity, other, Oral, Feed, dose end: 100 week, group: systemic
[10] = tested on: rat; conditions: Subchronic oral toxicity in rodents, other, [Not Specified], dose end: 13 week, group: systemic
[11] = group: developmental, developmental / developmental malformation / bone / fused
[12] = group: developmental, developmental / developmental malformation / bone / fused + developmental / developmental malformation / bone / [other] + developmental / …
[13] = group: maternal, systemic / in life observation / body weight / body weight gain + systemic / in life observation / clinical signs / salivation + …
[14] = group: developmental, developmental / developmental malformation / general / [other]
[15] = group: maternal, reproductive / reproductive performance / postimplantation loss / postimplantation loss + systemic / in life observation / food consumption…
[16] = group: developmental, developmental / developmental malformation / bone / irregular ossification + developmental / developmental malformation / bone / misshapen …
[17] = group: maternal, systemic / in life observation / body weight / body weight gain + systemic / in life observation / food consumption / food consumption + …
[18] = systemic / pathology microscopic / liver / vacuolization
[19] = systemic / pathology microscopic / liver / vacuolization + systemic / in life observation / body weight / body weight gain + systemic / …
[20] = group: offspring, developmental / offspring survival late / viability index / viability index
[21] = group: offspring, developmental / offspring survival late / viability index / viability index + systemic / in life observation / body weight / offspring (pup…
[22] = group: parental, systemic / in life observation / body weight / body weight + systemic / in life observation / mortality / mortality + systemic / pathology …
[23] = group: reproductive, reproductive / offspring survival early / birth index / live birth index
[24] = group: developmental, developmental / developmental malformation / bone / full supernumerary
[25] = group: maternal, systemic / in life observation / body weight / body weight gain
[26] = systemic / clinical chemistry / alanine aminotransferase (alt/sgpt) / alanine aminotransferase (alt/sgpt) + systemic / clinical chemistry / …
[27] = systemic / in life observation / body weight / body weight gain
[28] = systemic / pathology gross / adrenal gland / enlarged
[29] = systemic / urinalysis / ph / ph

[O-][n+]1ccccc1[S-].[O-][n+]1ccccc1[S-].[Zn+2] [Zinc pyrithione]
LEL [1]: 1000 mg/kg/day
LOAEL [1]: 1000 mg/kg/day
NEL [1]: 100 mg/kg/day
NOAEL [1]: 100 mg/kg/day
LEL [2, 11]: 3 mg/kg/day
LOAEL [2, 11]: 3 mg/kg/day
NEL [2, 12]: 0.75 mg/kg/day
NOAEL [2, 12]: 0.75 mg/kg/day
LOAEL ([2]; group: maternal, systemic / in life observation / body weight / body weight gain + systemic / in life observation / clinical signs / salivation): 3 mg/kg/day
LEL [2, 13]: 3 mg/kg/day
NEL [2, 13]: 0.75 mg/kg/day
NOAEL [2, 13]: 0.75 mg/kg/day
LEL [3, 14]: 3 mg/kg/day
LOAEL [3, 14]: > 3 mg/kg/day
NEL [3, 14]: 1.5 mg/kg/day
NOAEL [3, 14]: ≥ 3 mg/kg/day
LEL [3, 15]: 1.5 mg/kg/day
LOAEL [3, 15]: 1.5 mg/kg/day
NEL [3, 15]: 0.5 mg/kg/day
NOAEL [3, 15]: 0.5 mg/kg/day

CC1(C)CC/C(=C\c2ccc(Cl)cc2)C1(O)Cn1cncn1 (centres undefined) [Triticonazole]
LEL [4, 16]: 75 mg/kg/day
LOAEL [4, 16]: 75 mg/kg/day
NEL [4, 16]: 50 mg/kg/day
NOAEL [4, 16]: 50 mg/kg/day
LEL [4, 17]: 50 mg/kg/day
LOAEL [4, 17]: 50 mg/kg/day
NEL [4, 17]: 25 mg/kg/day
NOAEL [4, 17]: 25 mg/kg/day
NEL [5, 18]: 17.4 mg/kg/day
NOAEL [5, 18]: 17.4 mg/kg/day
LEL [5, 19]: 202 mg/kg/day
LOAEL [5, 19]: 202 mg/kg/day
LEL [6, 20]: 0.25 mg/kg/day
NEL [6, 20]: < 0.25 mg/kg/day
LOAEL [6, 21]: 250 mg/kg/day
NOAEL [6, 21]: 37.5 mg/kg/day
LOAEL [6, 22]: 250 mg/kg/day
NOAEL [6, 22]: 37.5 mg/kg/day
NEL ([6]; group: parental, systemic / in life observation / body weight / body weight + systemic / pathology microscopic / adrenal gland / vacuolization + systemic / …): 1.25 mg/kg/day
LEL ([6]; group: parental, systemic / organ weight / adrenal gland / absolute): 37.5 mg/kg/day
LEL [6, 23]: 0.25 mg/kg/day
NEL [6, 23]: < 0.25 mg/kg/day
LOAEL ([6]; group: reproductive, reproductive / reproductive performance / fertility / fertility): 250 mg/kg/day
NOAEL ([6]; group: reproductive, reproductive / reproductive performance / fertility / fertility + reproductive / offspring survival early / birth index / live birth index…): 37.5 mg/kg/day
LEL [7, 24]: 1000 mg/kg/day
LOAEL [7, 24]: 1000 mg/kg/day
NEL [7, 24]: 200 mg/kg/day
NOAEL [7, 24]: 200 mg/kg/day
LEL [7, 25]: 1000 mg/kg/day
LOAEL [7, 25]: 1000 mg/kg/day
NEL [7, 25]: 200 mg/kg/day
NOAEL [7, 25]: 200 mg/kg/day
LOAEL [8, 26]: 150 mg/kg/day
NOAEL [8, 26]: 25 mg/kg/day
LEL [8, 27]: 2.5 mg/kg/day
NEL [8, 27]: < 2.5 mg/kg/day
LEL [9, 28]: 0.2 mg/kg/day
NEL [9, 28]: < 0.2 mg/kg/day
LOAEL ([9]; systemic / pathology microscopic / adrenal gland / inflammation + systemic / in life observation / body weight / body weight + systemic / in…): 287 mg/kg/day
NOAEL ([9]; systemic / pathology microscopic / adrenal gland / inflammation + systemic / pathology microscopic / adrenal gland / atypia nuclear): 38.3 mg/kg/day
LOAEL ([10]; systemic / pathology microscopic / adrenal gland / vacuolization): 19.8 mg/kg/day
NOAEL ([10]; systemic / pathology microscopic / adrenal gland / vacuolization + systemic / clinical chemistry / alkaline phosphatase (alp/alk) / alkaline…): 2 mg/kg/day
LEL [10, 29]: 2.2 mg/kg/day
NEL [10, 29]: < 2.2 mg/kg/day
